Values after ≈ are worked out from the molar mass of the structure shown. Read-outs that look alike come from different tables or passages of the source.
Key:
[1] = system: M. tb mc^26230 WT; assay: microbe, parasite or virus in culture; format: cell-based
[2] = system: M. tb mc^26230-empty vector; assay: REMA, empty vector strain; format: cell-based, Mycobacterium tuberculosis
[3] = system: M. tb mc^26230-HsaD; assay: microbe, parasite or virus in culture; format: cell-based, Mycobacterium tuberculosis; conditions: for MIC50: REMA
[4] = system: M. tb mc^26230-Rv0183; assay: microbe, parasite or virus in culture; format: cell-based, Mycobacterium tuberculosis
[5] = system: M. tb mc^26230-Ag85A; assay: microbe, parasite or virus in culture; format: cell-based, Mycobacterium tuberculosis
[6] = system: M. tb mc^26230-TesA; assay: microbe, parasite or virus in culture; format: cell-based, Mycobacterium tuberculosis
[7] = system: M. tb mc^26230-LipH; assay: microbe, parasite or virus in culture; format: cell-based, Mycobacterium tuberculosis; conditions: for MIC50: REMA
[8] = system: M. tb mc^26230-Ag85C; assay: microbe, parasite or virus in culture; format: cell-based, Mycobacterium tuberculosis
[9] = Mycobacterium tuberculosis, REMA

CCCCCCCCCCCCCCCCOP1(=O)OCCC(C(=O)OC)=C(C)O1 (stereo not drawn) [CyC 17]
MIC50 ratio mutant/WT [1]: 1.00
MIC50 ratio mutant/WT [2]: 0.95
increase in MIC50 value compared to WT strain [3]: 2.2 fold
MIC50 ratio mutant/WT ([3]; M. tb mc^26230-HsaD): 2.18
MIC50 ([3]; M. tb mc^26230-HsaD): 1.20 ± 0.026 µM (≈ 0.536 µg/mL)
MIC50 ([3]; Mycobacterium tuberculosis, M. tb mc^26230-HsaD, read-out: MIC50): 1.2 ± 0.026 µM (≈ 0.536 µg/mL)
MIC50 ratio mutant/WT ([4]; M. tb mc^26230-Rv0183): 0.80
MIC50 ([4]; Mycobacterium tuberculosis, M. tb mc^26230-Rv0183, REMA): 0.44 ± 0.013 µM (≈ 0.196 µg/mL)
MIC50 ratio mutant/WT [5]: 1.00
MIC50 [5, 9]: 0.55 ± 0.014 µM (≈ 0.246 µg/mL)
MIC50 ratio mutant/WT [6]: 0.95
MIC50 [6, 9]: 0.52 ± 0.012 µM (≈ 0.232 µg/mL)
increase in the MIC50 value compared to WT strain [7]: around 1.3 fold
MIC50 ratio mutant/WT ([7]; M. tb mc^26230-LipH): 1.31
MIC50 ([7]; M. tb mc^26230-LipH): 0.72 ± 0.020 µM (≈ 0.322 µg/mL)
MIC50 ([7]; Mycobacterium tuberculosis, M. tb mc^26230-LipH, read-out: MIC50): 0.72 ± 0.02 µM (≈ 0.322 µg/mL)
MIC50 ratio mutant/WT [8]: 0.98
MIC50 [8, 9]: 0.54 ± 0.009 µM (≈ 0.241 µg/mL)

— PMC5603573, “Cyclipostins and Cyclophostin analogs as promising compounds in the fight against tuberculosis” (Scientific Reports, 2017)
